{"source": "patent US20040019118A1", "about": "“NMDA receptor antagonists and their use in inhibiting abnormal hyperphosphorylation of microtubule associated protein tau” (priority 2002, published 2004)", "key": {"[1]": {"system": "MAP2", "assay": "Immunohistochemical staining of MAP2 in cultured hippocampal slices", "assay_type": "cell-based, rat", "details": "100 nM OA 24 h, then 10 μM Memantine 24 h", "procedure": "Organotypic cultures of rat hippocampal slices were prepared from 20-30 day old Wistar rats and cultured with the interface method as described previously (Stoppini, et al. 1991; Bahr, et al. 1995; Zhongrin, et al. 2000). The rats were anesthetized with ketamine (100 mg/kg body weight) and decapitated and the hippocampi were dissected out and sliced into 400 um coronal sections by a McIllwain tissue chopper. Select slices with uninterrupted bright transparent neuronal layers were plated, 1-3 slices/filter, onto Millicell CM filters (Millipore, Bedford, Mass.). For the first 2 days in vitro (DIV) cultures were maintained in 25% horse serum, 50% Basal Media-Eagle (BEM), 25% Eagle's Balanced Salt Solution (EBSS), 25 mM HEPES, 1 mM glutamine, 28 mM glucose, pH 7.2, at 32° C. in a 5% CO2 humidified atmosphere. The slice cultures were then switched to 25% horse serum, 50% BEM and EBSS modified so that the potassium concentration was 2.66 mM, for another 5 DIV. […]\nAfter different treatments some of the hippocampal slices were fixed in periodate/lysine/paraformaldehyde solution (Mclean, et al. 1974) at 33° C. for 5 h and then kept in 1% Triton-x-100 in PBS (pH 7.4) for 72 h at room temperature to improve the penetration of the antibodies. […] Peroxidase was detected using 0.05% diaminobenzidine (DAB) and H2O2 (0.01%) for 10 min."}, "[2]": {"system": "MAPK", "assay": "MAPK activity in extracts of treated hippocampal slice cultures", "assay_type": "cell-based, rat", "details": "after 0.3 mM glutamate; 10 μM Memantine or 15 μM MK801", "procedure": "(§1) The rats were anesthetized with ketamine (100 mg/kg body weight) and decapitated and the hippocampi were dissected out and sliced into 400 um coronal sections by a McIllwain tissue chopper. Select slices with uninterrupted bright transparent neuronal layers were plated, 1-3 slices/filter, onto Millicell CM filters (Millipore, Bedford, Mass.). […] After 7 DIV, the cultures were maintained in physiological potassium containing 5% horse serum medium at 35° C. for at least 20 days before any treatment was applied. When the slices were treated, the reagents were applied into the culture medium. At different time points, the slices collected with a brush were washed twice in homogenizing buffer (50 mM HEPES, pH 7.0, 10 mM β-merceptoethanol [BME], 1 mM EDTA, 1 mM EGTA, 0.1 mM phenylmethyl sulfonyl fluoride [PMSF], 2.0 mM benzamidine and 2.0 μg/ml each of aprotinin, leupeptin and pepstatin) and homogenized at 4° C. using a Teflon-glass homogenizer. The homogenate was then divided into two parts, one was centrifuged at 16000×g for 15 min and the supernatant was used to assay activities of PP-2A and PP-1. The rest of the homogenate was diluted 1:1 with a phosphatase inhibitor cocktail (20 mM β-glycerophosphate, 2 mM Na3VO4 and 100 mM NaF, pH 7.0) and either used for Western blots or centrifuged at 16000×g for 15 min and the resulting supernatant used to determine the kinase activities.\nImmobilized protein G (Pierce, Rockford, Ill.), 20 μl, was mixed in 50 mM Tris, pH 7.4, 150 mM NACl, 10 mM NaF, 1.0 mM Na3VO4, 2.0 mM EGTA, 1 mM PMSF, 5 μg/ml leupeptin, 5 μg/ml aprotinin, 2 μg/ml pepstatin, 25 μg/ml phosphoramidon. After incubation at 4° C. overnight, the mixture was centrifuged and the beads were washed three times. The beads were then resuspended in 50 mM Tris, pH 7.4, containing 10 mM MgCl2. MAPK substrate peptide (UBI, Lake Placid, N.Y.) was employed for the MAPK assay. […]"}, "[3]": {"biological_target": "T1, PP-2A (Homo sapiens, UniProt P67775)", "T1 sequence (P67775 whole entry)": "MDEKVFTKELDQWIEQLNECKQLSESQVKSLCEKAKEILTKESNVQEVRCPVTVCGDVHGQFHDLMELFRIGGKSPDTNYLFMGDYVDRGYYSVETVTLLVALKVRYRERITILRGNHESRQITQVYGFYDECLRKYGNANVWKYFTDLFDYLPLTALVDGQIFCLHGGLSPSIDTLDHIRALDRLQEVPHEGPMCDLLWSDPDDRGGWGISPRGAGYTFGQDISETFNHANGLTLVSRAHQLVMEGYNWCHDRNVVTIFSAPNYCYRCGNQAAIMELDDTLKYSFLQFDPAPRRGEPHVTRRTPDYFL", "design": "treatment of the SY5Y human neuroblastoma in culture with 10 nM OA for 24 h; host or cells: SY5Y human neuroblastoma cells (endogenous)", "details": "10 nM OA, 24 h; cited from earlier work"}, "[4]": {"system": "PP-1", "assay": "PP-1 activity in extracts of treated hippocampal slice cultures", "assay_type": "cell-based, rat", "details": "OA up to 1 μM, up to 48 h", "procedure": "as §1"}, "[5]": {"biological_target": "T1, PP-2A", "details": "read-out: in vitro IC50; cited from earlier work"}, "[6]": {"system": "PP-1", "details": "up to 5 μM OA, 3 h; cited from earlier work"}, "[7]": {"system": "PP-1", "details": "10 nM OA, 24 h; cited from earlier work"}, "[8]": {"biological_target": "T2, PP-2A (Rattus norvegicus, UniProt P63331)", "T2 construct": "the supernatant was used to assay activities of PP-2A and PP-1; from tissue; host or cells: organotypic culture of adult rat hippocampal slices; 16,000xg extract", "T2 sequence (P63331 whole entry)": "as the sequence (P67775 whole entry) above, with V5L counted along it", "details": "up to 5 μM OA, 3 h; cited from earlier work"}}, "note": "“Also recorded” adds a separate entry of the source. Where two headings read alike, the source gives them in different places."}
{"smiles": "CC12CC3CC(C)(C1)CC(N)(C3)C2", "note": "[Memantine, 1-amino-3,5-dimethyl adamantane]", "values": [{"measurement": "MAP2 immunostaining", "setting": "[1]", "result": "beaded accumulation of MAP2 in dendrites was reduced and overall staining was increased; also recorded: a decrease in the degeneration and restoration of the staining of the neuropil; also recorded: partially reversed"}, {"measurement": "effect on MAP kinase activity", "setting": "[2]", "result": "no effect"}]}
{"smiles": "C=C1[C@@H](O)[C@@H]2O[C@]3(CC[C@H](/C=C/[C@@H](C)[C@@H]4CC(C)=C[C@@]5(O[C@H](C[C@@](C)(O)C(=O)O)CC[C@H]5O)O4)O3)CC[C@H]2O[C@@H]1[C@@H](O)C[C@H](C)[C@H]1O[C@@]2(CCCCO2)CC[C@H]1C", "note": "[OA, Okadaic Acid]", "values": [{"measurement": "inhibition of PP-2A", "setting": "[3]", "result": "complete inhibition"}, {"measurement": "inhibition of PP-1 activity", "setting": "[4]", "result": "no significant changes; also recorded: no detectable inhibition"}, {"measurement": "IC50", "setting": "[5]", "result": "~1", "unit": "nM"}, {"measurement": "inhibition of PP-1", "setting": "[6]", "result": "no detectable inhibition"}, {"measurement": "inhibition of PP-1", "setting": "[7]", "result": "~65", "unit": "%"}, {"measurement": "maximal inhibition of PP-2A", "setting": "[8]", "result": "~70", "unit": "%"}]}
